Results as given in patent publication US10143737B2, “Method for the vaccination against HIV” (Bionor Immuno AS, priority 2014, dated 2018).
Bridges are numbered along the chain shown (N, C = ends). Roman numbers before positions name the chains, in order. Where no end group is shown, it is not given here.

Tests used:
[1] = system: Anti-C5/gp41 sera from BI400-B immunized rabbits; assay: Competitive ELISA for rabbit sera after immunization with BI400-B; format: binding; conditions: for Inhibition of binding of rabbit sera to C5/gp41 (015/201): competitor preincubated with serum, 10-1000 μM
Procedure: 50-100 μl of a mixture of BI400-015 and -201 (pre-incubated in Coating buffer—0.05M Na2CO3 pH9.6; denoted CB—in cold at 16 μg/ml for each peptide 1-3 days prior to coating) or just CB (background control) was used for coating wells in microtiter plates at 4° C. overnight. Plates were then washed 3x with washing buffer (PBS+1% v/v Triton-X100; denoted WB), followed by 2 h blocking at room temperature (RT) with 200 μl/well of blocking buffer (PBS+1% w/v BSA). Plates were then washed 3x with WB, followed by 1 h incubation at 37° C. with 60-100 μl/well of added rabbit serum samples (diluted 1:10-1:250 final concentration) preincubated together (4° C. overnight) with serial dilutions (ranging from 10-1000 μM final concentration) of 400-SEQ.B, BI400-015, BI400-201, BI400-204d, recombinant gp41 (Shin-Won Scientific, SWO 102 gp41), BI301-23 (irrelevant protein; control), no peptide (i.e. PBS; control), LTNP-sera pools (diluted 1:10 final concentration), or Blood donor sera-pools (diluted 1:10 final concentration; control). Plates were then washed 6x with WB, followed by 1 h incubation at RT with 70 μl/well of Alkaline Phosphatase-conjugated Goat-anti-Rabbit-Ig (6 μg/ml; Dako D0487). Plates were then washed 6x with WB, followed by 10-60 min incubation at RT with 100 μl/well of 0.3% w/v of Phenoftalein monophosphate (Sigma P-5758). Plates were finally quenched by adding 100 μl/well of Quench solution (0.1M TRIS+0.1M EDTA+0.5M NaOH+0.01% w/v NaN3; pH14), followed by ELISA reader (ASYS UVM 340) at 550 nm.

HIV-specific T-cells = conditions: dendritic cells presenting Gag- or Nef-specific peptides; cited from earlier work
C5/gp41 (015/201) = assay: Rabbit immunization with BI400-B vaccine, serum ELISA; format: in vivo, New Zealand White female rabbits; conditions: 500 μg intradermally weeks 0, 2, 6 in Freund's adjuvant; in the presence of PBS
Procedure: New Zealand White female rabbits (n=3) were immunized intradermally at weeks 0, 2 & 6 with 1 ml of BI400-B vaccine consisting of 500 μg BI400-B in 50% V/V Freund's adjuvant (i.e. Complete Freund's adjuvant used for priming, followed by boostings with Incomplete Freund's adjuvant). Individual blood serum was isolated for ELISA.
50-100 μl of a mixture of BI400-015 and -201 (pre-incubated in Coating buffer—0.05M Na2CO3 pH9.6; denoted CB—in cold at 16 μg/ml for each peptide 1-3 days prior to coating) or just CB (background control) was used for coating wells in microtiter plates at 4° C. overnight. Plates were then washed 3x with washing buffer (PBS+1% v/v Triton-X100; denoted WB), followed by 2 h blocking at room temperature (RT) with 200 μl/well of blocking buffer (PBS+1% w/v BSA). […] Plates were finally quenched by adding 100 μl/well of Quench solution (0.1M TRIS+0.1M EDTA+0.5M NaOH+0.01% w/v NaN3; pH14), followed by ELISA reader (ASYS UVM 340) at 550 nm.

[2] = system: pooled human sera from HIV chronically infected individuals, LTNP and non-infected blood donors; assay: Seroreactivity of pooled human sera to peptide-coated magnetic particles (general ELISA principle); format: binding; conditions: peptide 600 μg/ml alone or 300 μg/ml each in combination; positivity determined visually
Procedure: Seroreactivity to SEQ ID NO: 1 alone or in combination with SEQ ID NOs. 6 (with the sequence […]), 8 and 9 was determined according to a general ELISA principle either using magnetic particles as a solid support or attachment of peptides to a 96-well tray.
In the system described below, peptide was coated on to magnetic particles using generally accepted techniques. 300 μg was coated onto particles for all peptides with the exception of SEQ1 where 600 μg was used. SEQ ID NO: 1 (from C5) and SEQ ID NO: 6, 8 and 9 (from gp41) were preincubated overnight at 4 degrees C. to allow interactions to form between between C5 and gp41 sequences respectively and all combined. Sera were then incubated with the peptide coated beads according to established protocols. Visualisation of antibody binding to C5 peptides was achieved using protein G that can bind immunoglobulins from different species coupled to alkaline phosphatase. The positive control was commercially available serum from a sheep immunised with the C5 derived sequence […] (SEQ ID NO: 1).
Pooled sera from 25 LTNP were tested for seroreactivity to SEQ ID NO: 1 alone and SEQ ID NO: 1 when in combination with SEQ ID NOs: 6 ([…]), 8 and 9 respectively and all combined. Pooled sera were also tested from 12 HIV positive, chronically infected individuals and 20 sera from blood donors.

[3] = system: latently infected cell lines and primary T cells; conditions: cited from earlier work

In the case of “DRPEGIEEEGGERDR (Glu can be Gly; Gly can be Arg; Arg can be Gln; Asp can be Gly; Arg can be Lys) [SEQ ID NO: 6]”, the “Inhibition of binding of rabbit sera to C5/gp41 (015/201)” value (“Inhibition of binding of rabbit sera” for short) [1] is reported as “could be inhibited”.

In the case of `Nc1cccc2c1CN(C1CCC(=O)NC1=O)C2=O` (stereo not shown) [Lenalidomide], the “Function of T-cells after in vitro stimulation in presence of IMiDs” value (HIV-specific T-cells) is listed as “a number of improvements in the function of the T-cells”.

With GGAIVNGSLADDDIVI [SEQ ID NO: 37] the “Inhibition of binding of rabbit sera” value [1] was “could be inhibited”.

For “BI400-B: SEQ ID NO: 38 and SEQ ID NO: 39 linked via Cys and Lys residues (chain 1 GAKRRVVGGCGGAKRRVVQREKRAGEREKRA; chain 2 GKGGIEEEGGRDRDRGGEQDRDR; bridge I:10-II:2 (inferred))”, the “Binding of sera from immunized rabbits to C5/gp41 peptides” value (C5/gp41 (015/201)) was “bound to peptides corresponding to C5/gp41 (015/201)”, the “Inhibition of binding of rabbit sera” value [1] was “could be inhibited” and the “Competition of anti-C5/gp41 rabbit sera by human sera pools” value ([1]; sera pools diluted 1:10) was “competitively inhibited by LTNP-sera pools, but not with BD control sera”.

In the case of APTKAKRRVVQREKR [SEQ ID NO: 1], the “Seroreactivity, Blood-donors pool” value [2] is reported as “=” and the “Inhibition of binding of rabbit sera” value [1] is reported as “could be inhibited”.

In the case of `Nc1cccc2c1C(=O)N(C1CCC(=O)NC1=O)C2=O` (stereo not shown) [pomalidomide], the “Function of T-cells after in vitro stimulation in presence of IMiDs” value (HIV-specific T-cells) is listed as “a number of improvements in the function of the T-cells”.

For `C/C=C1\NC(=O)[C@H]2CSSCC/C=C/[C@H](CC(=O)N[C@H](C(C)C)C(=O)N2)OC(=O)[C@H](C(C)C)NC1=O` [romidepsin, (1S,4S,7Z,10S,16E,21R)-7-ethylidene-4,21-bis(1-methylethyl)-2-oxa-12,13-dithia-5,8,20,23-tetraazabicyclo[8.7.6] tricos-16-ene-3,6,9,19,22-pentone], the “Activation of HIV-1 expression” value [3] is given as “potently activates HIV-1 expression”.
